Experimental data taken from patent US20220107317A1, “COMPOSITIONS AND METHODS FOR DIAGNOSING AND TREATING CORONAVIRUS DISEASE 2019” (priority 2020, published 2022).

Target: SARS-CoV-2 spike protein RBD (Severe acute respiratory syndrome coronavirus 2, UniProt P0DTC2)
Settings: spike protein RBD and dimer of spike protein RBD, FIG. 4

With “DLSGFVRPDPVIISSPLSTFFSDAGYKSLLKITMTQSTVPLNLIRVHLMVAVEG HLFQKSFQASPNLAYTFIWDKTDAYGQRVYGLSDAVVSVGFEYETCPSLILW EKRTALLQGFELD [T2 peptide]” the “binding in Western blot” value was “binding between T2 peptide to both spike protein RBD and the dimer of spike protein RBD”.
